Activity and logP data for twelve compounds are collected here from ChEMBL document CHEMBL1141403, “New adamantane-based spiro 1,2,4-trioxanes orally effective against rodent and simian malaria” (J Med Chem, 2007).

Active and inactive are the calls of the source. The calls are words filed in the database; no cut-off is given here.

For data set [1], the system named is Plasmodium cynomolgi. The data set can be described thus: Antimalarial activity against Plasmodium cynomolgi infected Rhesus monkey at 10 mg/kg peroral dose over 4 days. The data set is classed as functional. As to conditions: route oral.
Data set [2] relates to Plasmodium yoelii nigeriensis. The data set can be described thus: Antimalarial activity against Plasmodium yoelii nigeriensis infected Swiss mice (Mus musculus) at 96 mg/kg intramuscular dose over 4 days. The data set is classed as functional.
The subject of data set [3] is Plasmodium cynomolgi. The data set can be described thus: Antimalarial activity against Plasmodium cynomolgi infected Rhesus monkey at 10 mg/kg intramuscular dose over 4 days. The data set is classed as functional, organism-based. Further details: dose 10 mg/kg.
Data set [4] deals with Mus musculus. The data set can be described thus: Survival of Swiss mice (Mus musculus) infected with Plasmodium yoelii nigeriensis at 48 mg/kg, peroral after 28 days. The data set is classed as functional, organism-based. Further details: dose 48 mg/kg.
The nature of data set [5]: Partition coefficient, log P of the compound. The data set is classed as physicochemical. The following applies: octanol/water.
Data set [6] has as its system Plasmodium yoelii nigeriensis. The data set can be described thus: Antimalarial activity against Plasmodium yoelii nigeriensis infected Swiss mice (Mus musculus) at 24 mg/kg peroral dose over 4 days. The data set is classed as functional. The following applies: route oral.
Data set [7] deals with Mus musculus. The data set can be described thus: Survival of Swiss mice (Mus musculus) infected with Plasmodium yoelii nigeriensis at 96 mg/kg, peroral after 28 days. The data set is classed as functional, organism-based. Set-up: dose 96 mg/kg.
In data set [8] the test system is Plasmodium yoelii nigeriensis. The data set can be described thus: Antimalarial activity at day 4 against Plasmodium yoelii nigeriensis infected in Swiss mice (Mus musculus) at 96 mg/kg peroral dose. The data set is classed as functional. As to conditions: route oral.
Data set [9] concerns Plasmodium yoelii nigeriensis. As to the kind of experiment: Antimalarial activity against Plasmodium yoelii nigeriensis infected Swiss mice (Mus musculus) at 48 mg/kg peroral dose over 4 days. As to conditions: route oral. The data set is classed as functional.
The subject of data set [10] is Plasmodium cynomolgi. The data set can be described thus: Antimalarial activity against Plasmodium cynomolgi infected Rhesus monkey at 20 mg/kg peroral dose after 5 days. As to conditions: route oral. The data set is classed as functional.
The subject of data set [11] is Mus musculus. The data set can be described thus: Survival of Swiss mice (Mus musculus) infected with Plasmodium yoelii nigeriensis at 96 mg/kg, intramuscular after 28 days. The data set is classed as functional, organism-based. Set-up: dose 96 mg/kg.
Data set [12] has as its system Mus musculus. The data set can be described thus: Survival of Swiss mice (Mus musculus) infected with Plasmodium yoelii nigeriensis at 24 mg/kg, peroral after 28 days. The data set is classed as functional, organism-based. Further details: dose 24 mg/kg.

`C=C(c1ccc2c(c1)Cc1ccccc1-2)C1COC2(OO1)C1CC3CC(C1)CC2C3` (stereo not drawn): the Activity (with Plasmodium cynomolgi [1]; in data set [2]; in data set [6]; in data set [8]; in data set [9]; in the data set with Plasmodium cynomolgi [10]) was 100% in each case. Besides, the outcome in the data set with Plasmodium cynomolgi [3] was inactive. The result in the data set with Mus musculus [4] and in the data set on Mus musculus [7] was Active. For the same compound, the logP in data set [5] was determined as 6.39.
`CCO[C@H]1O[C@@H]2O[C@@]3(C)CC[C@H]4[C@H](C)CC[C@@H]([C@H]1C)[C@@]24OO3` [ARTEMOTIL]: in the data set with Mus musculus [4], the result was Active. In addition, the Activity in [6] and in data set [9] was 100% in each case.
In the case of `C=C(c1ccc2ccc3ccccc3c2c1)C1COC2(OO1)C1CC3CC(C1)CC2C3` (stereo not drawn), the Activity in data set [2] is listed as 69%; in data set [8], 100%; in [9] it was 100%. The compound further came in with a logP in data set [5] of 6.65. Further, in the data set on Mus musculus [11], the result was inactive. Also, the outcome in the data set with Mus musculus [7] was Active.
As to `C=C(c1ccccc1)C1COC2(OO1)C1CC3CC(C1)CC2C3` (stereo not drawn), the figures for the Activity in [2] and in data set [8] were 97% and 99%, respectively. The compound also returned a log partition coefficient (logP) in [5] of 4.65. Further, the result in the data set with Mus musculus [11] and in the data set with Mus musculus [7] was inactive.
Turning to `C=C(C1COC2(OO1)C1CC3CC(C1)CC2C3)C12CC3CC(CC(C3)C1)C2` (stereo not drawn), the Activity amounted to 14% in [2] and 70% in [8]. Besides, the logP in [5] was determined as 5.43. In addition, the outcome in the data set on Mus musculus [11] and in the data set with Mus musculus [7] was inactive.
For the compound `C=C(c1ccc2c(ccc3ccccc32)c1)C1COC2(OO1)C1CC3CC(C1)CC2C3` (stereo not drawn), the Activity in [2], in data set [8] and in [9] was 100% each time. This compound came in with a logP in data set [5] of 6.65.
As for `C=C(c1ccc2ccccc2c1)C1COC2(OO1)C1CC3CC(C1)CC2C3` (stereo not drawn), the Activity in data set [2] came to 71%; in [8], 100%; in [9], 100%. The same compound gave a logP in data set [5] of 5.65. Besides, in the data set on Mus musculus [11], the outcome was inactive.
As for `C=C(C1COC2(CCCC2)OO1)C12CC3CC(CC(C3)C1)C2` (stereo not drawn), the values for the Activity in [2] and in data set [8] were 38% and 57%, respectively. For the same compound, in data set [5], the lipophilicity (logP) stood at 4.38. For the same compound, the result in the data set with Mus musculus [11] and with Mus musculus [7] was inactive.
As for `C=C(c1ccc2c(c1)CCCC2)C1COC2(OO1)C1CC3CC(C1)CC2C3` (stereo not drawn), the Activity in data set [2], in data set [8] and in data set [9] was 100% throughout. Also, the lipophilicity (logP) in [5] was 5.96. Also, in the data set with Mus musculus [7], the result was Active.
On to `C[C@H]1[C@H](OC(=O)CCC(=O)O)O[C@@H]2O[C@@]3(C)CC[C@H]4[C@H](C)CC[C@@H]1[C@@]24OO3` [ARTESUNATE], for which the result in the data set on Mus musculus [12] was inactive. Further, the outcome with Mus musculus [4] was Active. In data set [5], the lipophilicity (logP) was 3.04. Further, the Activity in data set [6] and in data set [9] was 100% each time.
Regarding `C=C(C1COC2(CCCCC2)OO1)C12CC3CC(CC(C3)C1)C2` (stereo not drawn), the logP in [5] came to 4.79. Also, the result in the data set with Mus musculus [11] and in the data set with Mus musculus [7] was inactive. For the same compound, the Activity in [8] stood at 52%.
Turning to `C=C(c1cccc2ccccc12)C1COC2(OO1)C1CC3CC(C1)CC2C3` (stereo not drawn), the Activity amounted to 87% in data set [2], 100% in data set [8] and 100% in [9]. This compound had a log partition coefficient (logP) in data set [5] of 5.65. Further, the result in the data set on Mus musculus [11] was inactive. Besides, in the data set with Mus musculus [7], the outcome was Active.

What is called logP is a log measure of how a compound divides between an organic and an aqueous phase.
